Usually NOAEL stands for the highest tested level that showed no adverse finding.

From EPA's ToxValDB 9.5 (doi:10.2903/j.efsa.2014.3540) come the findings set out here.

In one data set the test system is Rattus norvegicus. The conditions noted are these: for NOAEL: chronic.
Another data set has as its system Oryctolagus sp. The conditions noted are these: developmental; development.
A further data set has as its system Tagia sp. The conditions noted are these: acute; duration: 14 days; mortality.
A further data set concerns Oncorhynchus mykiss. The conditions noted are these: chronic/long-term; duration: 96 days; mortality.
Another data set relates to Daphnia magna. The following applies: chronic/long-term; duration: 21 days; reproduction.
Another data set concerns Apis mellifera. The following applies: acute, duration: 48 hours, mortality.
Another data set has as its system Colinus virginianus. The following applies: for LD50: acute, oral, mortality.
For the next data set, the system named is Landoltia sp. The following applies: acute; duration: 7 days; growth.

`Cc1c(C(=O)c2c[nH]n(C)c2=O)ccc(S(C)(=O)=O)c1C1=NOCC1` [Topramezone]: the LD50 is more than 2000 mg/kg-day in the data set with Rattus norvegicus (acute, oral, mortality); more than 100 µg/piece in the data set with Apis mellifera (dermal); more than 72 µg/piece with Apis mellifera (oral, unspecified); more than 1080 mg/kg-day in the data set with Colinus virginianus (diet); more than 2000 mg/kg-day in the data set on Colinus virginianus. The NOAEL with Rattus norvegicus (F) is 0.4 mg/kg-day; in the data set on Rattus norvegicus (M), 0.3 mg/kg-day; with Rattus norvegicus (duration: 2 years, F, histopathology: neoplastic) it was 0.4 mg/kg-day; in the data set on Oryctolagus sp. it was 0.5 mg/kg-day. Further, in the data set on Tagia sp., the LC50 was more than 1000 mg/kg. For the same molecule, the NOAEC in the data set on Oncorhynchus mykiss amounted to 3.2 mg/L. Further, the NOEC turned out to be 50 mg/L in the data set on Daphnia magna and 0.001 mg/L in the data set on Landoltia sp.. In the data set on Colinus virginianus (reproduction developmental, reproduction), the NOEL was found to be 19.4 mg/kg-day.
